Measurements published in ChEMBL document CHEMBL1201862, “PubChem BioAssay data set” (2004).
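Method: 48-hour compound exposure of cells in 96-well plates, five concentrations, linear interpolation of endpoints. Here, GI50 denotes the concentration required for 50% inhibition of growth.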 Calls of active or inactive are those of the source. No stated cut-off is given here; in the data, active = GI50 up to about 1.1 µM and inactive = higher.

Tests used:
Assay in all cases: NCI anticancer screen, dose series, 48 h
Hs-578T = tested on: Hs-578T
MDA-MB-231 = tested on: MDA-MB-231
PC-3 = tested on: PC-3
MDA-N = tested on: MDA-N
MDA-MB-435 = tested on: MDA-MB-435
DU-145 = tested on: DU-145

Measured: GI50

NCCCN(CCCN)CCN(CCN(CCCN)CCCN)CCN(CCCN)CCCN
inactive: Hs-578T 23.5 µM | MDA-MB-231 > 100 µM | PC-3 > 100 µM | MDA-N > 100 µM | MDA-MB-435 > 100 µM | DU-145 > 100 µM
